pIC50: −log10 of the molar value.
What was measured:
MV-4-11 = assay: Cell proliferation panel (CellTiter-Glo 2.0, 5 days); type: cell-based; details: Biphenotypic B-Myelomonocytic Leukemia
Experimental: (§1) Cell proliferation assay was carried out in a panel of 108 cell lines. 1000 (attached cells) or 3000 (suspension cells) cells/100 μl per well were seeded in 96 well black plate with a clear bottom (Corning #3904). Compounds were added using Tecan D300e Digital Dispenser in 1:3 titration for 9 doses. Plates were incubated for 5 days at 37° C. and 5% CO2. Cell proliferation was measured using CellTiter-Glo 2.0 luciferase-based ATP detection assay (Promega, Madison, WI) at 50 μl per well following the manufacturer's protocol. Plates were then read on a TECAN Sparks multimode microplate reader. Data was analyzed using GraphPad Prism 9 (GraphPad Software, San Diego, CA) to obtain IC50 values. IC50 values were determined using Prism software (GraphPad Software, San Diego, CA).

H358 = assay: as above; type: cell-based; details: Bronchioalveolar carcinoma NSCLC
Experimental: as §1

UCSD-AML1 = assay: as above; type: cell-based; details: Acute myeloid leukemia
Experimental: as §1

ZR-75-1 = assay: as above; type: cell-based; details: Mammary gland ductal carcinoma
Experimental: as §1

COLO320 = assay: as above; type: cell-based; details: Colorectal adenocarcinoma
Experimental: as §1

HCC827 = assay: as above; type: cell-based; details: Lung adenocarcinoma NSCLC
Experimental: as §1

769-P = assay: as above; type: cell-based; details: Renal cell adenocarcinoma
Experimental: as §1

U87 MG = assay: as above; type: cell-based; details: Glioblastoma
Experimental: as §1

KATOIII = assay: as above; type: cell-based; details: Gastric carcinoma
Experimental: as §1

KCL22R = assay: as above; type: cell-based; details: Chronic Myelogenous Leukemia
Experimental: as §1

HCC1806 = assay: as above; type: cell-based; details: Breast carcinoma, TNBC
Experimental: as §1

PA-1 = assay: as above; type: cell-based; details: Ovary Teratocarcinoma
Experimental: as §1

SK-BR-3 = assay: as above; type: cell-based; details: Breast adenocarcinoma
Experimental: as §1

PANC0403 = assay: as above; type: cell-based; details: Pancreatic adenocarcinoma
Experimental: as §1

H1688 = assay: as above; type: cell-based; details: Small cell lung carcinoma
Experimental: as §1

H2087 = assay: as above; type: cell-based; details: Lung adenocarcinoma NSCLC
Experimental: as §1

SW620 = assay: as above; type: cell-based; details: Colorectal adenocarcinoma
Experimental: as §1

AU565 = assay: as above; type: cell-based; details: Breast adenocarcinoma
Experimental: as §1

H1792 = assay: as above; type: cell-based; details: Lung adenocarcinoma NSCLC
Experimental: as §1

KASUMI-1 = assay: as above; type: cell-based; details: Acute myeloblastic leukemia
Experimental: as §1

H727 = assay: as above; type: cell-based; details: Bronchial lung carcinoid
Experimental: as §1

SW480 tumor = assay: Cell-derived xenograft (CDX) tumor model; type: in vivo; details: mice, oral 25 mg/kg QD, 28 days
Experimental: (§2) Tumor cells were cultured using standard techniques described above and were harvested and pelleted by centrifugation at 1000 rpm for 5 minutes. The pelleted cells were washed once with serum-free medium followed by subsequent re-suspension in the serum-free medium supplemented with 50% matrigel (Corning, Inc). Five million tumor cells were implanted subcutaneously to the right flank of each mouse, followed by tumor volume and body weight measurement once or twice per week with an electronic caliper (Fowler) and a balance, respectively. When the average tumor size reached a pre-determined volume, the mice were grouped and treated with Ex. 6. One group of mice were treated with vehicle as control. During treatment, mice were monitored daily by cage side observation. The tumor volume (TV) and body weight was measured twice or three times per week during the treatment. Study ended either after 4-5 weeks of treatment or tumor volume of any mice reached 1000 or 2000 mm^3. Tumor growth inhibition (TGI) was be calculated as follows: […]

MV-4-11 tumor = assay: Cell-derived xenograft (CDX) tumor model; type: in vivo; details: MV-4-11 CDX, mice, 20 days
Experimental: as §2

SW403 tumor = assay: Cell-derived xenograft (CDX) tumor model; type: in vivo; details: mice, oral 25 mg/kg QD, 20 days
Experimental: as §2

IMR-32 tumor = assay: Cell-derived xenograft (CDX) tumor model; type: in vivo; details: IMR-32 CDX, mice, oral 25 mg/kg QD, 8 days
Experimental: as §2

MOLM-13 tumor = assay: Cell-derived xenograft (CDX) tumor model; type: in vivo; details: MOLM-13 CDX, mice, 13 days
Experimental: as §2

BaF3 FLT3-ITD/D835V = assay: Cell proliferation panel (CellTiter-Glo 2.0, 5 days); type: cell-based; details: murine pro-B cell line expressing FLT3-ITD/D835V
Source text: (§3) Ba/F3 cells were purchased from DSMZ. The FLT3-ITD gene was synthesized at GenScript and cloned into pCDH-CMV-MCS-EF1-Puro plasmid (System Biosciences, Inc). FLT3-ITD/D835V and FLT3-ITD/F691L cDNA clones were made at GenScript by PCR and confirmed by sequence. Ba/F3 FLT3-ITD, FLT3-ITD/D835V and FLT3-ITD/F691L cell lines were generated by infecting Ba/F3 cells with lentivirus containing FLT3-ITD, FLT3-ITD/D835V or FLT3-ITD/F691L genes. Stable cell lines were selected by puromycin treatment, followed by IL-3 withdrawal.
as §1

BaF3 FLT3-ITD = assay: as above; type: cell-based; details: murine pro-B cell line expressing FLT3-ITD
Source text: as §3, §1

BaF3 FLT3-ITD/F691L = assay: as above; type: cell-based; details: murine pro-B cell line expressing FLT3-ITD/F691L
Source text: as §3, §1

BaF3 = assay: as above; type: cell-based; details: murine IL-3 dependent pro-B cell line, with 1 ng/mL mouse IL-3
Source text: as §3, §1

**Q.** How did the pIC50 (MV-4-11) turn out when CCc1nn(C)c2c1/C=C/c1n[nH]c3ccc(cc13)-c1cnn(C)c1OCCN(C)C2=O [Ex. 6, (17E)-16-ethyl-8,12,14-trimethyl-2,11,12,14-tetrahydro-8H-3,5-ethenotripyrazolo[3,4-f:3′,4′-j:4″,3″-n][1,4]oxazacyclopentadecin-13(10H)-one] was run?
**A.** 9.17

**Q.** And the pIC50 (H358)?
**A.** 6.83

**Q.** What about the pIC50 (UCSD-AML1) of the same molecule?
**A.** 7.81

**Q.** What about the pIC50 (ZR-75-1) of the same molecule?
**A.** 6.84

**Q.** And the pIC50 (COLO320)?
**A.** 7.07

**Q.** What about the pIC50 (HCC827) of the same molecule?
**A.** 7.15

**Q.** What about the pIC50 (769-P) of the same molecule?
**A.** 7.04

**Q.** And the pIC50 (U87 MG)?
**A.** 7.05

**Q.** And the pIC50 (KATOIII)?
**A.** 6.80

**Q.** What about the pIC50 (KCL22R) of the same molecule?
**A.** 7.19

**Q.** And the pIC50 (HCC1806)?
**A.** 7.07

**Q.** And the pIC50 (PA-1)?
**A.** 7.32

**Q.** What about the pIC50 (SK-BR-3) of the same molecule?
**A.** 7.41

**Q.** And the pIC50 (PANC0403)?
**A.** 6.66

**Q.** And the pIC50 (H1688)?
**A.** 6.94

**Q.** What about the pIC50 (H2087) of the same molecule?
**A.** 6.85

**Q.** And the pIC50 (SW620)?
**A.** 7.12

**Q.** What about the pIC50 (AU565) of the same molecule?
**A.** 7.59

**Q.** What about the pIC50 (H1792) of the same molecule?
**A.** 6.92

**Q.** What about the pIC50 (KASUMI-1) of the same molecule?
**A.** 7.85

**Q.** And the pIC50 (H727)?
**A.** 7.00

**Q.** And the TGI % (SW480 tumor)?
**A.** 93%

**Q.** And the TGI % (MV-4-11 tumor; oral 6.25 mg/kg QD)?
**A.** 98.8%

**Q.** What about the TGI % (MV-4-11 tumor; oral 12.5 mg/kg QD) of the same molecule?
**A.** 189%

**Q.** What about the TGI % (MV-4-11 tumor; oral 25 mg/kg QD, 5dOn-2dOff) of the same molecule?
**A.** 200%

**Q.** And the TGI % (MV-4-11 tumor; oral 25 mg/kg QD)?
**A.** 200%

**Q.** What about the TGI % (SW403 tumor) of the same molecule?
**A.** 84%

**Q.** And the TGI % (IMR-32 tumor)?
**A.** 82%

**Q.** And the TGI % (MOLM-13 tumor; oral 12.5 mg/kg QD)?
**A.** 74%

**Q.** What about the TGI % (MOLM-13 tumor; oral 25 mg/kg QD) of the same molecule?
**A.** 94%

**Q.** What about the pIC50 (BaF3 FLT3-ITD/D835V) of the same molecule?
**A.** 8.89

**Q.** What about the pIC50 (BaF3 FLT3-ITD) of the same molecule?
**A.** 9.26

**Q.** What about the pIC50 (BaF3 FLT3-ITD/F691L) of the same molecule?
**A.** 7.64

**Q.** What about the pIC50 (BaF3) of the same molecule?
**A.** 6.29
